In US20090076029A1 (Palatin Technologies, Inc., priority 2007, published 2009):
Values joined by “and” are separate entries in the source; they are usually repeats but may differ in a detail not shown here. Equal values may be shown once. Read-outs that look alike come from different tables or passages of the source.

How the values were obtained:
hMC3-R = target: T1, hMC3-R; assay: Competitive inhibition assay using [I125]-NDP-α-MSH, hMC3-R membranes; type: binding, human; details: read-out: Ki (nM) (NDP-α-MSH) MC3-R
T1 construct: expressed in transfected cells; host or cells: HEK-293
Outline: (§1)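 Single-concentration displacement (usually 1 μM compound) of 0.2–0.4 nM [125I]-NDP-α-MSH, run 90 min at room temperature in pH 7.2 HEPES containing MgCl2, CaCl2 and KCl. Receptor sources: transfected HEK-293 membranes for human MC3-R/MC4-R/MC5-R, B-16 mouse melanoma membranes for MC1-R. Bound counts normalised to 1 μM α-MSH-defined specific binding; triplicates averaged, values below 0% set to 0%.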

hMC5-R = target: T2, hMC5-R; assay: Competitive inhibition assay using [I125]-NDP-α-MSH, hMC5-R membranes; type: binding, human; details: read-out: Ki (nM) (NDP-α-MSH) MC5-R
T2 construct: expressed in transfected cells; host or cells: HEK-293
Outline: as §1

hMC4-R [1] = system: T3, hMC4-R; type: binding, human; details: for Inhibition at 1 μM (AgRP) MC4-R: 1 μM compound
T3 construct: expressed in transfected cells; host or cells: HEK-293
Outline: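 Membranes from hMC4-R-expressing cells incubated 1 h at 37 °C with 0.2 nM [I^125]-AgRP (83-132) and increasing compound in 25 mM HEPES pH 7.5, 100 mM NaCl, 2 mM CaCl2, 2 mM MgCl2, 0.3 mM 1,10-phenanthroline, 0.5% BSA. Filtration, gamma counting; specific binding kept ≤10% of added counts.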

hMC4-R [2] = system: T3, hMC4-R; assay: cAMP functional assay in HEK-293 cells expressing MC4-R (agonist, neutral antagonist/Schild); type: cell-based, human; details: for intrinsic activity at MC4-R: NDP-α-MSH maximal stimulation = 1.0; for pA2 value at MC4-R: Schild plot vs NDP-α-MSH; for functional status at MC4-R: mostly at 1 μM
Outline: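 Cells in EBSS/HEPES pH 7.5 with 0.3 mM IBMX, exposed to compound (0.05-5000 nM, 1% DMSO) for 1 h at 37 °C; cAMP by EIA, EC50 by nonlinear regression. Antagonism: 30 min compound pre-incubation, then 1 nM NDP-α-MSH for 1 h; Schild analysis over 0.005-5000 nM agonist gives pA2.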

[3] = MC4-R membranes, Table 1, read-out: Ki (nM) I125-AgRP

Structure (SMILES) | Ki (hMC3-R) [nM] | Ki (hMC5-R) [nM] | Inhibition at 1 μM (AgRP) MC4-R (hMC4-R [1]) [%] | Ki (hMC4-R [1]; [3]) [nM] | Ki (hMC4-R [1]; read-out: Ki (nM) (AgRP) MC4-R) | functional status (pAg, Ag, Antag, Inactive) (hMC4-R [2]; MC4-R, Table 1) | intrinsic activity at MC4-R (hMC4-R [2]) | pA2 value at MC4-R (hMC4-R [2]) | functional status at MC4-R (hMC4-R [2]; cAMP assay) | EC50 (hMC4-R [2]; MC4-R, Table 1, read-out: EC50) [nM] | EC50 (hMC4-R [2]; cAMP assay, read-out: EC50 (nM) at MC4-R) [nM]
CC(C)C[C@@H]1CN(C(=O)[C@H](N)Cc2ccc(Cl)cc2Cl)[C@@H](CCCNC(=N)N)CN1CCc1ccc2ccccc2c1 [Example 4, N-{3-[1-[2(R)-Amino-3-(2,4-dichloro-phenyl)-propionyl]-5(R)-isobutyl-4-(2-naphthalen-2-yl-ethyl)-piperazin-2(S)-yl]-propyl}-guanidine] | 87 | 160 | 100 | 6 | 6 | Antag (“Antag” means antagonist) | no intrinsic activity | 7.7 | antagonist |  | 
CC(=O)N[C@H](Cc1ccc(C)cc1C)C(=O)N1C[C@@H](C)N(CCc2ccc3ccccc3c2)C[C@@H]1CCCNC(=N)N [Example 26, N-{1(R)-(2,4-Dimethyl-benzyl)-2-[2(S)-(3-guanidino-propyl)-5(R)-methyl-4-(2-naphthalen-2-yl-ethyl)-piperazin-1-yl]-2-oxo-ethyl}-acetamide] | 74 | 43 | 100 | 3 | 0.18 | Antag (“Antag” means antagonist) | no intrinsic activity | 8.3 | antagonist |  | 
Cc1ccc(C[C@@H](N)C(=O)N2C[C@@H](C)N(CCc3ccc4ccccc4c3)C[C@@H]2CCCNC(=N)N)c(C)c1 [Example 28, N-{3-[1-[2(R)-Amino-3-(2,4-dimethyl-phenyl)-propionyl]-5(R)-methyl-4-(2-naphthalen-2-yl-ethyl)-piperazin-2(S)-yl]-propyl}-guanidine] | 167 | 665 | 100 | 3 | 3 | pAg (“pAg” means partial agonist) | 0.16 and 0.2 |  |  | 390 | 321
